Assay results: patent US6451816B1, “Use of pyridyl alkane, pyridyl alkene and/or pyridyl alkine acid amides in the treatment of tumors or for immunosuppression” (Klinge Pharma GmbH, priority 1997, dated 2002)
Counter-ions that a name gives are not always drawn.

| Compound | melting point |
| --- | --- |
| Cl.Cl.O=C(C=Cc1cccnc1)NCCCCC1CCNCC1 | 178 to 188 °C |
| O=C(C=Cc1cccnc1)NCCCCC1CCN(C(c2ccccc2)c2ccccc2)CC1 (as salt: methanesulfonate) [Substance 104, N-[4-(1-Diphenylmethylpiperidin-4-yl)-butyl]-3-(pyridin-3-yl)-acrylamide] | 156 °C |
| O=C(C=Cc1cccnc1)NCC1CN(C(c2ccccc2)c2ccccc2)C1 [Substance 2, N-(1-Diphenylmethylazetidin-3-ylmethyl)-3-(pyridin-3-yl)-acrylamide] | 72 to 74 °C |
| O=C(C=Cc1cccnc1)NCCCCC1CCN(Cc2ccccc2)CC1 [Substance 46, N-[4-(1-Benzylpiperidin-4-yl)-butyl]-3-(pyridin-3-yl)-acrylamide] | 88 to 90 °C |
| O=C(C=Cc1cccnc1)NCCCOC1CCN(Cc2ccccc2)CC1 [Substance 55, N-[3-(1-Benzylpiperidine-4-yloxy)-propyl]-3-(pyridin-3-yl)-acrylamide] | 100 to 102 °C |
| O=C(C=Cc1cccnc1)NCCC1CCN(C(c2ccccc2)c2ccccc2)CC1 [Substance 95, N-[2-(1-Diphenylmethylpiperidin-4-yl)-ethyl]-3-(pyridin-3-yl)-acrylamide] | 141 to 143 °C |
| O=C(CCc1cccnc1)NCCCC1CCN(C(c2ccccc2)c2ccccc2)CC1 [Substance 96, N-[3-(1-Diphenylmethylpiperidin-4-yl)-propyl]-3-(pyridin-3-yl)-propionamide] | 109 to 110 °C |
| CCN(CCCCC1CCN(C(c2ccccc2)c2ccccc2)CC1)C(=O)/C=C/c1cccnc1 [Substance 123, N-[4-(1-Diphenylmethylpiperidin-4-yl)-butyl]-N-ethyl-3-(pyridin-3-yl)-acrylamide] | 115 to 117 °C |
| O=C(COc1cccnc1)NCCCCC1CCN(C(c2ccccc2)c2ccccc2)CC1 [Substance 129, N-[4-(1-Diphenylmethylpiperidin-4-yl)-butyl]-2-(pyridin-3-yloxy)-acetamide] | 103 to 105 °C |
| O=C(C=CC=Cc1cccnc1)NCCCCC1CCN(C(c2ccccc2)c2ccccc2)CC1 [Substance 132, N-[4-(1-Diphenylmethylpiperidine-4-yl)-butyl]-5-(pyridin-3-yl)-2,4-pentadienoic Acid Amide] | 164 to 166 °C |
| O=C(CCc1cccnc1)NCCCCCC1CCN(C(c2ccccc2)c2ccccc2)CC1 [Substance 142, N-[5-(1-Diphenylmethylpiperidin-4-yl)-pentyl]-3-(pyridin-3-yl)-propionamide] | 112 to 114 °C |
| O=C(C=Cc1cccnc1)NCCCCC1CCN(C(c2ccc(F)cc2)c2ccc(F)cc2)CC1 [Substance 171, N-(4-{1-[bis-(4-Fluorophenyl)-methyl]-piperidin-4-yl}-butyl)-3-(pyridin-3-yl)-acrylamide] | 108 °C |
| O=C(CCc1cccnc1)NCCCCC1CCN(C2c3ccccc3COc3ccccc32)CC1 (stereo not drawn) [Substance 230, N-{4-[1-(6,11-Dihydrodibenzo[b,e]-oxepin-11-yl)-piperidine-4-yl]-butyl}-3-(pyridin-3-yl)-propionamide] | 110 to 112 °C |
| O=C(C=Cc1cccnc1)NCCCCC1CCN(C(=O)c2cccc3c2-c2ccccc2C3=O)CC1 [Substance 277, N-{4-[1-(9-oxo-9H-Fluorene-4-carbonyl)-piperidine-4-yl]-butyl}-3-(pyridin-3-yl)-acrylamide] | 80 to 82 °C |
| O=C(CCc1cccnc1)NCCCCC1CCN(S(=O)(=O)c2ccc3ccccc3c2)CC1 [Substance 337, N-{4-[1-(2-Naphthylsulfonyl)-piperidin-4-yl]-butyl}-3-(pyridin-3-yl)-propionamide] | 103 to 105 °C |
